From ChEMBL document CHEMBL1201862, “PubChem BioAssay data set” (2004)
The source made the active and inactive calls.

Legend:
Streptococcus = assay: GAS UMAA2166 growth inhibition – luminescence, BacTiterGlo, counter-screen for streptokinase expression inhibitor project, dose response (AID 1915); format: functional, organism-based;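 further: potency for reduction of bacterial viability or growth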
[1] = tested on: Streptococcus sp. 'group A'; assay: Streptococcus pyogenes SK(-)GAS viability under kanamycin – luminescence, BacTiterGlo, confirmation, counter-screen for streptokinase expression inhibitor project, dose response (AID 1900); format: functional, organism-based
Streptokinase A = target: T1, Streptokinase A (Streptococcus pyogenes serotype M1, UniProt P10520); assay: viability-normalized secreted streptokinase activity reduction – plasminogen activation absorbance, OD405, dose response (AID 1914); format: functional, Streptococcus pyogenes M1 GAS;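 further: secreted streptokinase activity via plasminogen activation per viability signal from cell pellet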
T1 sequence (P10520 whole entry): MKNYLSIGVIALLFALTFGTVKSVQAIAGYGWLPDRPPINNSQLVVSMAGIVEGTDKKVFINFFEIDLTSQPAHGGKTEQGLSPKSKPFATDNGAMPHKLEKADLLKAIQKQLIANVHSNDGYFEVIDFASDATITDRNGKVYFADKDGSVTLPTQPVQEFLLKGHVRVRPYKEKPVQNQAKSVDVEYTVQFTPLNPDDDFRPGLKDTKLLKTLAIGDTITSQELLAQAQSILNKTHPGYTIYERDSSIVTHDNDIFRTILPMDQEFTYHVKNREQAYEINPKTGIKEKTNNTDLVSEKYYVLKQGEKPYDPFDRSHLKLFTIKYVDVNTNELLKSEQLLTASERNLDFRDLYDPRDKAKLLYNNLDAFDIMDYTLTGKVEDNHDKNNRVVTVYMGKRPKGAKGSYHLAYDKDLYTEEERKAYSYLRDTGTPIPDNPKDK

[2] = viability of uninfected HEp-2 cells – cell-based, HTS, cytotoxicity control for RSV inhibitor project, dose response (AID 2410); format: functional; settings: human respiratory syncytial virus
[3] = Luminescence Cell-Based Dose Retest to Confirm Inhibitors of Cancer Stem Cells. [Related pubchem assays (depositor defined):AID2717, AID2721]; format: functional; settings: Homo sapiens
[4] = viability of HCT116 lacking mutant beta-catenin – cell-based, human colon tumor, dose response (AID 1045); format: functional;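 further: HCT116 colon tumor cells with beta catenin knocked out; cells exposed to compound for 60 hours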
[5] = viability of PTEN-deleted HCT116 cells – cell-based, HCT116 PTEN knockout, dose response (AID 1047); format: functional;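 further: HCT116 colon tumor cells with PTEN knocked out; cells exposed to compound for 60 hours before readout; potency for loss of cell viability measured by luminescence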
[6] = target: T2, Rac GTPase-activating protein 1 (Homo sapiens, UniProt Q9H0H5); assay: blockers of MgcRacGAP-driven Rac1 GTP hydrolysis – biochemical, ADP Hunter fluorescence, primary and confirmatory, confirmation (AID 624330); format: functional
T2 sequence (Q9H0H5 whole entry): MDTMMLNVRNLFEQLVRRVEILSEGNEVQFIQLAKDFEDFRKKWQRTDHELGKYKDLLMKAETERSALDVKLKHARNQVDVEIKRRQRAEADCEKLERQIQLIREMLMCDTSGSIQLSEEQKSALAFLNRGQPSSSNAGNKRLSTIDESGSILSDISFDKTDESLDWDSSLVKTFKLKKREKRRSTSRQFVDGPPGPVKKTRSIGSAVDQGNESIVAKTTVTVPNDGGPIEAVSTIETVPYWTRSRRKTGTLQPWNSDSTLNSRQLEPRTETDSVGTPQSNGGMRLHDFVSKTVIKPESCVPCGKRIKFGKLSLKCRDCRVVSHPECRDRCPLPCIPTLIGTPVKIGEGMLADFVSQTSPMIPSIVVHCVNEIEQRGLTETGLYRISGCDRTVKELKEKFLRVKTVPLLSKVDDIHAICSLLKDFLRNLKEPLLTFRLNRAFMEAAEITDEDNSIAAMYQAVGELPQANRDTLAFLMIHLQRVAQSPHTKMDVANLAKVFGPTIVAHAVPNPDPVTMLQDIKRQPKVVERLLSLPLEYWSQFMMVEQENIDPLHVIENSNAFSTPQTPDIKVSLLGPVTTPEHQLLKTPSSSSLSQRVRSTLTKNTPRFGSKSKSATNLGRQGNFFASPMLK

[7] = Luminescence Cell-Based Dose Response HTS to Identify Activators of Luciferase Translation or Activity in H4 […] Cells. [Related pubchem assays: 1829 (Project Summary), 1814 (Primary HTS)]; format: functional
[8] = target: T3, Ubiquitin-conjugating enzyme E2 N (Homo sapiens, UniProt P61088); format: functional;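 further: Dose-response confirmation in a TR-FRET assay detecting UBC13-driven polyubiquitin chain formation, inhibition measured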
T3 sequence (P61088 whole entry): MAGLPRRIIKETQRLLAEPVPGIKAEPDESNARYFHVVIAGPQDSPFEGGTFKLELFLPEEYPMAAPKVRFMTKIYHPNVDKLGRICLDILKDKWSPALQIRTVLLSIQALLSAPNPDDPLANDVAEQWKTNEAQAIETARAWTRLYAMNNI

[9] = Luminescence Cell-Based Dose Confirmation HTS to Identify Activators of 5'UTR Stem-Loop Driven Alpha-Synuclein mRNA Translation in H4 Neuroglioblastoma Cells. [Related pubchem assays: 1829 (Project Summary), 1814 (Primary HTS)]; format: functional
H4 = assay: Luminescence Cell-Based Dose Response HTS to Identify Activators of 5'UTR Stem-Loop Driven Prion Protein mRNA Translation in H4 Neuroglioblastoma Cells. [Related pubchem assays: 1829 (Project Summary), 1814 (Primary HTS)]; format: functional; settings: Homo sapiens
Cytochrome P450 2C19 = Cytochrome P450 2C19 (Homo sapiens, UniProt P33261); assay: Cytochrome panel assay with activity outcomes. Panel member name: p450-cyp2c19 Compounds with AC50 equal or less than 10 uM are considered active; format: functional; settings: read-out: AC50
H9c2 = assay: cells; format: functional, cell-based; settings: Rattus norvegicus, H9c2, Myocardium;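 further: confirmatory concentration-response retest of ultra-high-throughput screening hits for modulation of myocardial damage; cell death induced by hydrogen peroxide oxidative stress; compound pretreatment for 60 min then peroxide exposure for 2 h; potency is for protecting the cells against peroxide damage rather than for killing them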
Cytochrome P450 3A4 = Cytochrome P450 3A4 (Homo sapiens, UniProt P08684);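 further: CYP3A4 tested as one member of a cytochrome P450 panel screen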
[10] = loss of viability in HepG2 cells – cell-based, CellTiter-Glo, cherry-picked, cytotoxicity control for Shn3 inhibitor project, dose response (AID 624134); format: functional
[11] = reduction of Shn3 3'UTR-driven luciferase in osteoblasts – cell-based, Clone20 osteoblasts, firefly luciferase, cherry-picked, dose response (AID 624132); format: functional;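 further: firefly luciferase luminescence from reporter carrying the Shn3 3'UTR in osteoblasts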
[12] = non-specific 3'UTR reporter inhibition in Clone20-Shn3RL – cell-based, Renilla luciferase, cherry-picked, counter-screen for Shn3 inhibitor project, dose response (AID 624133); format: functional
[13] = target: T4, Corticotropin-releasing factor receptor 2/Corticotropin-releasing factor-binding protein (Homo sapiens, UniProt P24387+Q13324); assay: activators of CRF receptor 2 with binding protein – uHTS hits, confirmation (AID 602473); format: functional; settings: read-out: EC50_Mean
T4 sequence (Q13324 whole entry): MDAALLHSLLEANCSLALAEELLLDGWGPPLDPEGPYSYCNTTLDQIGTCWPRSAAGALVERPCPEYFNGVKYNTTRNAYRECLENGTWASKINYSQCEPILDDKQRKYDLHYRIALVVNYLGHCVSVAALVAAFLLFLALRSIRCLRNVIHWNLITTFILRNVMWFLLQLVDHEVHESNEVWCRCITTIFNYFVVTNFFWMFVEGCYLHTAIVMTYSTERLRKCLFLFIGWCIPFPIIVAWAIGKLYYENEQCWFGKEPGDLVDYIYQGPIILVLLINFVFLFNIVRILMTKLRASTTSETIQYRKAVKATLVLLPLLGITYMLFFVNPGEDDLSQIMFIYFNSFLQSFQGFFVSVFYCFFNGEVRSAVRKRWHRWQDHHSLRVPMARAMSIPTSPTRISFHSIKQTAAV
T4 sequence (P24387 whole entry): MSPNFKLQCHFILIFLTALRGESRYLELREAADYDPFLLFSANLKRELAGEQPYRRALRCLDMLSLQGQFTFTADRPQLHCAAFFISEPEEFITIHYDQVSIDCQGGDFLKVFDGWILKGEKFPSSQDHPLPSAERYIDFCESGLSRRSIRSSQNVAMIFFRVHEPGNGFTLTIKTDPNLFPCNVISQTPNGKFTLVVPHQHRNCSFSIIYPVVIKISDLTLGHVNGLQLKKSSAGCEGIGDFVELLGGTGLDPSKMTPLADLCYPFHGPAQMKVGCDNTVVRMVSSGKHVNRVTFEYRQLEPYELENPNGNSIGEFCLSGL

[14] = fluconazole-exposed Candida albicans growth modulators – fluorescence, retest, confirmation (AID 2467); format: functional, cell-based
[15] = NIH-3T3 fibroblast cytotoxicity, dose response, cytotoxicity control, cell-based, fluorescence, Alamar Blue, secondary assay (AID 2327); format: functional;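 further: NIH-3T3 mouse fibroblasts cultured with fluconazole at 8 µg/mL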
[16] = NIH3T3 cell viability loss – ATP luminescence, mouse fibroblasts, counter-screen, dose response (AID 2010); format: functional, cell-based;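 further: cells exposed to compound for about 90 hours before reading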
[17] = Trypanosoma cruzi growth suppression in host cells – NIH3T3 host cells, beta-gal luminescence, confirmation (AID 2044); format: functional, cell-based;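 further: intracellular parasites grown in NIH/3T3 mouse fibroblasts as host cells; luminescent beta-galactosidase reporter signal from transgenic T. cruzi replicating inside host cells; inhibitors lower the luminescence signal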
Paired box protein Pax-8 = Paired box protein Pax-8 (Homo sapiens, UniProt Q06710); assay: PAX8 transcriptional activity inhibition in RMG-I – RMG-I cells, luciferase, cherry-pick, dose response (AID 687027); format: functional, cell-based;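 further: luciferase reporter driven by Pax8 target thyroperoxidase promoter measured by SteadyGlo luminescence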
Sequence of Paired box protein Pax-8 (Q06710 whole entry): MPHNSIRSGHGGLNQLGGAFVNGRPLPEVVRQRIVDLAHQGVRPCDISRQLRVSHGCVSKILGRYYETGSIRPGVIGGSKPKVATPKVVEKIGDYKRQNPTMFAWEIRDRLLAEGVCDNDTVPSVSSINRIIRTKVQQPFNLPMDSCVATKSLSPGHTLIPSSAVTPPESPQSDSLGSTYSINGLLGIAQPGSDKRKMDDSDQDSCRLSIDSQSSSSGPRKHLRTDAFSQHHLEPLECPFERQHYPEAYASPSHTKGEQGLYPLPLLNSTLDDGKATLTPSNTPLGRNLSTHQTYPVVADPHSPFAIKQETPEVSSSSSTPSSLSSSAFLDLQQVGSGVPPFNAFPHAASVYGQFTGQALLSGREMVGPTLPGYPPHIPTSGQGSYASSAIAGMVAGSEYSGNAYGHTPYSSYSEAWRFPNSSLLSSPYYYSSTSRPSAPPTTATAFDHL

Sequence of Cytochrome P450 3A4 (P08684 whole entry): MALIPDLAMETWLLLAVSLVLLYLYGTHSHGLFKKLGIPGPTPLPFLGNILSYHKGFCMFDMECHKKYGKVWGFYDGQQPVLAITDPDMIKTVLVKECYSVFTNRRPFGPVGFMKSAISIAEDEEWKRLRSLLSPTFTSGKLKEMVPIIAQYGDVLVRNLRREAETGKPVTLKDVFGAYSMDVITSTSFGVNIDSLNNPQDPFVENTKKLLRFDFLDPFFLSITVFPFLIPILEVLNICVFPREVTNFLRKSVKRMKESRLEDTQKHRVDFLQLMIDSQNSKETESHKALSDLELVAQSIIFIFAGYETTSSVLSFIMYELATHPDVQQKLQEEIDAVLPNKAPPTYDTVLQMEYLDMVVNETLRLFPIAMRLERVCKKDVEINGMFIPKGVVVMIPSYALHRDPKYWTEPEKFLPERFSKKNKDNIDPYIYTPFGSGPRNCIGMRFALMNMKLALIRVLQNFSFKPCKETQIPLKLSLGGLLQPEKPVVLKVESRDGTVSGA
Sequence of Cytochrome P450 2C19 (P33261 whole entry): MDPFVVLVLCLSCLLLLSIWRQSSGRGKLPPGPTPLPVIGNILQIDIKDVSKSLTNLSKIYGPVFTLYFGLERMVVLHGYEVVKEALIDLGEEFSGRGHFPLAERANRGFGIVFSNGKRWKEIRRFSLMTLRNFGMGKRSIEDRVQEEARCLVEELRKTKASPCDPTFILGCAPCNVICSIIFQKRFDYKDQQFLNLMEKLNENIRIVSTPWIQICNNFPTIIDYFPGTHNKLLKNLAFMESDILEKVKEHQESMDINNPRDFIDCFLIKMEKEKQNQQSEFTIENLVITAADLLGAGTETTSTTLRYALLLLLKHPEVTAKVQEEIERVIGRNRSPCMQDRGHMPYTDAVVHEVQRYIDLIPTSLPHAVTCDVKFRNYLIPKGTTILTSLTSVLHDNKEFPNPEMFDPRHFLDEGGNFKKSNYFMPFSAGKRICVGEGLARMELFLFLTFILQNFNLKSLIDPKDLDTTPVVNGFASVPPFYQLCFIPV

CCOC(=O)c1c(NC(=O)CCS(=O)(=O)c2ccccc2)sc2c1CCN(C)C2
EC50 (Streptococcus): > 150 µM (not active) | EC50 [1]: > 150 µM (not active) | EC50 (Streptokinase A): > 150 µM (not active)

CC(C)c1ccc(NC(=O)/C(C#N)=C/c2ccncc2)cc1
CC50 [2]: 14.5 µM (active)

CCc1cc2cccc(C)c2nc1SCC(=O)c1ccc(NC(C)=O)cc1
AC50 [3]: 2.94 µM (active)

CC(C)CCOc1ccc(-c2c(=O)n(OCc3ccc([N+](=O)[O-])cc3)c3ccccc3[n+]2[O-])cc1
EC50 [4]: 28.3 µM (active) | EC50 [5]: 20.7 µM (active)

COc1ccc(-n2c(O)cc(=O)nc2SCC(=O)Nc2ccccc2)cc1
EC50 (Streptococcus): > 150 µM (not active) | EC50 [1]: 67.3 µM (active) | EC50 (Streptokinase A): > 150 µM (not active)

c1ccc(CNc2ccc(N3CCOCC3)cc2)cc1
IC50 [6]: 8.18 µM (active)

Cc1ccc(C)c(C(=O)COc2ccccc2[N+](=O)[O-])c1
EC50 [4]: 9.49 µM (active) | EC50 [5]: 10.2 µM (active)

N#Cc1nc(-c2cccc3ccccc23)oc1NCCN1CCCCC1
EC50 [7]: 12 µM (active) | IC50 [8]: > 20 µM (inactive) | EC50 [9]: 12.4 µM (active) | EC50 (H4): > 120 µM (not active)

CC(=O)/C=C/c1ccc2ccccc2n1
EC50 [4]: 2.42 µM (active) | EC50 [5]: 2.58 µM (active) | AC50 (Cytochrome P450 2C19): 39.8 µM (inconclusive)

C[C@]12CCC(O)CC1CCC1C2CC[C@]2(C)C(c3cc(C(F)(F)F)[nH]n3)CCC12 (stereo not given in full)
AC50 [3]: 1.67 µM (active) | EC50 (Streptococcus): 3.87 µM (active) | EC50 [1]: 1.17 µM (active) | CC50 [2]: 8.08 µM (active)

COc1cc(NC(=O)c2cc3nc(-c4ccccc4)cc(-c4ccccc4)n3n2)cc(OC)c1OC
IC50 (H9c2): 8.62 µM (active) | EC50 (Streptococcus): > 150 µM (not active) | EC50 [1]: 11.7 µM (active) | EC50 (Streptokinase A): > 150 µM (not active) | AC50 (Cytochrome P450 3A4): 10 µM (inconclusive)

COc1cc(OC)c(NC(=O)C2CCN(S(=O)(=O)c3ccc4c(c3)CC(C)N4C(C)=O)CC2)cc1Cl (stereo not given)
CC50 [2]: > 50 µM (active)

N#C/C(=C\c1ccc(OCc2ccccc2)cc1)C(=O)Nc1nc2c(s1)CCN(Cc1ccccc1)C2
CC50 [2]: 28.8 µM (active)

Cc1cc2cc(CN(CC3CCCO3)C(S)=Nc3ccccc3)c(O)nc2cc1C (stereo not given)
EC50 [4]: 5.3 µM (active) | EC50 [5]: 4.38 µM (active) | AC50 [10]: 48.9 µM (active) | AC50 [11]: 2.91 µM (active) | AC50 [12]: 9.59 µM (active)

COc1cccc(CC(=O)OCC(=O)Nc2nnc(-c3ccccc3)o2)c1
EC50 (Streptococcus): > 150 µM (not active) | EC50 [1]: 7.82 µM (active) | EC50 (Streptokinase A): > 150 µM (not active)

C[C@]12CCC(O)CC1CCC1C2CC[C@]2(C)C(c3cc(C(F)(F)F)n[nH]3)CCC12 (stereo not given in full)
EC50 [13]: 11.1 µM (active) | EC50 (Streptokinase A): 4.19 µM (active)

CCOc1ccccc1NC(=O)C(NCCN(C)C)c1ccccc1 (stereo not given)
IC50 [6]: 91.1 µM (active)

CCOC(=O)c1cnc(-n2cc(C)cn2)nc1Nc1ccccc1OCC
EC50 (Streptococcus): 6.46 µM (active) | EC50 [1]: 4.47 µM (active) | EC50 [14]: > 38 µM (not active) | EC50 [15]: 44.2 µM (active) | EC50 (Streptokinase A): > 150 µM (not active)

CCCCCCC(C)(C)c1ccc([C@@H]2C[C@H](O)CC[C@H]2CCCO)c(O)c1 [CP-55940]
AC50 [3]: 3.58 µM (active)

COc1cc(C(=O)N/N=C/c2ccc(OC(=O)c3ccccc3Cl)c(OC)c2)ccc1O
EC50 (Streptococcus): 8.59 µM (active) | EC50 [1]: 6.17 µM (active) | EC50 (Streptokinase A): > 150 µM (not active)

COc1cc(OC)cc(C(=O)Nc2cccc(-c3ccc(N4CCOCC4)nn3)c2)c1
EC50 (Streptococcus): > 150 µM (not active) | EC50 [1]: > 150 µM (not active) | EC50 (Streptokinase A): > 150 µM (not active)

O=C1[C@@H]2Cc3c([nH]c4ccccc34)C(c3cccc(Br)c3)N2C(=O)CN1C1CCN(Cc2ccccc2)CC1 (stereo not given in full)
AC50 [3]: 6.9 µM (active) | EC50 [16]: 9.95 µM (active) | EC50 [17]: 1.32 µM (active) | AC50 (Paired box protein Pax-8): 12.1 µM (active)

CCc1sc(C(=O)Nc2nccs2)cc1C
EC50 (Streptococcus): > 150 µM (not active) | EC50 [1]: > 150 µM (not active) | EC50 (Streptokinase A): > 150 µM (not active)

CC1CN(c2nc(-c3ccc(Br)cc3)nnc2-c2ccccc2)CC(C)N1 (stereo not given)
EC50 [4]: 10 µM (active) | EC50 [5]: 11.3 µM (active)

Cc1ccc(CN2CCN(CC3CC4C=CC3C4)CC2)cc1 (stereo not given)
IC50 [6]: 113 µM (active)

CC1Nc2ncnc(N3CCN(c4ccccc4)CC3)c2N(Cc2ccc(Cl)cc2)C1=O (stereo not given)
IC50 (H9c2): > 79 µM (inactive) | CC50 [2]: 26.4 µM (active)

C=CCc1cccc(/C=N/c2cc(Br)ccc2O)c1O
IC50 [6]: 14.7 µM (active)

C=C(C)COc1ccc(-c2nc(N)ncc2Oc2ccc(OC)cc2)c(O)c1
EC50 (Streptococcus): > 150 µM (not active) | EC50 [1]: 47.6 µM (active) | EC50 (Streptokinase A): > 150 µM (not active)
